According to PubChem BioAssay AID1259408 (Genetic Toxicology Data Bank (GENE-TOX), 2018):
Calls of active or inactive are those of the source. How the calls were made is not given here.

Tested on: GENE-TOX genotoxicity assays, various organisms and cells
Experiment: GENE-TOX mutagenicity studies
Conditions: for call: Assay Type: In vivo carcinogenicity studies
Excerpt: GENE-TOX provides genetic toxicology (mutagenicity) test data from expert peer review of open scientific literature for more than 3,000 chemicals from the United States Environmental Protection Agency (EPA). GENE-TOX was established to select assay systems for evaluation, review data in the scientific literature, and recommend proper testing protocols and evaluation procedures for these systems.
GENE-TOX covers the years 1991 - 1998. It is no longer updated.
This is an archive assay for GENE-TOX mutagenicity studies.

[1] = Species/Cell Type: Neurospora crassa, Assay Type: Forward gene mutation, Assay Code: NEF+, Evaluation Type: Evaluation A (Pre-1980)
[2] = Species/Cell Type: Neurospora crassa, Assay Type: Reverse gene mutation, Assay Code: NER+, Evaluation Type: Evaluation A (Pre-1980)
[3] = Species/Cell Type: Salmonella typhimurium (one or more of the five standard strains: TA98, TA100, TA1535, TA1537, and TA1538), Assay Type: Histidine reverse gene mutation, Ames assay, Assay Code: SAL+*, Activation: With metabolic activation, Evaluation Type: Evaluation A (Pre-1980)
[4] = Species/Cell Type: Escherichia coli polA (W3119 vs P3478), Assay Type: Rec-assay, DNA effects (bacterial DNA repair), Assay Code: RE1T, Evaluation Type: Evaluation A (Pre-1980)
[5] = Species/Cell Type: Chinese hamster lung (V79) cells, Assay Type: Forward gene mutation at the HPRT or ouabain locus, Assay Code: V79+, Evaluation Type: Evaluation A (Pre-1980)
[6] = Species/Cell Type: Bacillus subtilis (H17 vs M45), Assay Type: Rec-assay, spot test, DNA effects (bacterial DNA repair), Assay Code: REW+, Evaluation Type: Evaluation A (Pre-1980)
[7] = Species/Cell Type: Bacillus subtilis (H17 vs M45), Assay Type: Rec-assay, spot test, DNA effects (bacterial DNA repair), Assay Code: REW-, Evaluation Type: Evaluation A (Pre-1980)
[8] = Species/Cell Type: Drosophila melanogaster, Assay Type: Sex-linked recessive lethal gene mutation, Assay Code: SRLT, Evaluation Type: Evaluation A (Pre-1980)
[9] = Species/Cell Type: Salmonella typhimurium (one or more of the five standard strains: TA98, TA100, TA1535, TA1537, and TA1538), Assay Type: Histidine reverse gene mutation, Ames assay, Assay Code: SAL+, Evaluation Type: Evaluation A (Pre-1980)
[10] = Species/Cell Type: Mammalian polychromatic erythrocytes, Assay Type: Micronucleus test, chromosome aberrations, Assay Code: MNTT, Evaluation Type: Evaluation B (Post-1980)
[11] = Species/Cell Type: Nonhuman, Assay Code: CCGT, Evaluation Type: Evaluation A (Pre-1980)
[12] = Species/Cell Type: Nonhuman, Assay Type: Sister-chromatid exchange (SCE) in vitro, Assay Code: SC2+D, Dose Response: With dose response, Evaluation Type: Evaluation B (Post-1980)
[13] = Species/Cell Type: Saccharomyces cerevisiae, Assay Type: Reverse gene mutation, Assay Code: YERT, Evaluation Type: Evaluation A (Pre-1980)
[14] = Species/Cell Type: Drosophila melanogaster, Assay Type: Sex-linked recessive lethal gene mutation, Assay Code: SRL+, Evaluation Type: Evaluation A (Pre-1980)
[15] = Species/Cell Type: Mouse prostate cells, Assay Type: Cell transformation, Assay Code: CTM+, Evaluation Type: Evaluation A (Pre-1980)

## ClCC1(Cl)OC1Cl (centres undefined)
[1]
  mutagenic call: active; positive
[2]
  mutagenic call: active; positive

## O=C1c2ccccc2C(=O)c2c1ccc(OCCCS(=O)(=O)O)c2O
[3]
  mutagenic call: active; positive

## CC(C)CBr
[4]
  mutagenic call: no conclusion

## CC(CN(CC(=O)O)CC(=O)O)N(CC(=O)O)CC(=O)O (centres undefined)
[5]
  mutagenic call: active; positive

## O=[Te](=O)(O)O
[6]
  mutagenic call: active; positive
[7]
  mutagenic call: inactive; negative

## Cc1c[nH]c(=O)[nH]c1=O
[8]
  mutagenic call: no conclusion
Species/Cell Type: Nonhuman, Assay Type: Sister-chromatid exchange (SCE) in vitro, Assay Code: SC2T, Evaluation Type: Evaluation B (Post-1980)
  mutagenic call: no conclusion

## CCCCc1ccc(C(=O)O)nc1
[7]
  mutagenic call: inactive; negative

## Cc1nc2ccc([N+](=O)[O-])cc2[nH]1
[9]
  mutagenic call: active; positive

## Cc1cc2c(c3ccc4ccccc4c13)CCC2C (centres undefined)
[3]
  mutagenic call: active; positive

## S=C1NCCCN1
[10]
  mutagenic call: no conclusion

## O=[N+]([O-])c1ccc(/C=C/c2nccn2Cc2ccccc2)o1
[2]
  mutagenic call: active; positive

## Nc1ncc2[nH]cnc2n1
[8]
  mutagenic call: no conclusion
Species/Cell Type: Escherichia coli WP2 UVRA, Assay Type: Tryptophan reverse gene mutation, Assay Code: WPU+, Evaluation Type: Evaluation A (Pre-1980)
  mutagenic call: active; positive
Species/Cell Type: Mouse lymphoma (L5178Y) cells, Assay Type: Forward gene mutation at the thymidine kinase (TK) locus, chromosome aberrations, Assay Code: L51+, Evaluation Type: Evaluation A (Pre-1980)
  mutagenic call: active; positive
Species/Cell Type: Mouse, Sex: Female, Assay Type: Spot test, gene mutation, Assay Code: MST+, Evaluation Type: Evaluation A (Pre-1980)
  mutagenic call: active; positive
[1]
  mutagenic call: active; positive
[11]
  call: no conclusion
Species/Cell Type: Saccharomyces cerevisiae, Assay Type: Forward gene mutation, Assay Code: YEF+, Evaluation Type: Evaluation A (Pre-1980)
  mutagenic call: active; positive

## CO[C@@H]1[C@@H](OC(N)=O)[C@@H](O)[C@H](Oc2ccc3c(O)c(NC(=O)c4ccc(O)c(CC=C(C)C)c4)c(=O)oc3c2C)OC1(C)C
Species/Cell Type: Nonhuman, Assay Type: Sister-chromatid exchange (SCE) in vitro, Assay Code: SC2+, Evaluation Type: Evaluation B (Post-1980)
  mutagenic call: active; positive

## O=C1c2ccccc2C(=O)c2c1cc(O[C@H]1O[C@H](CO[C@@H]3OC[C@@H](O)[C@H](O)[C@H]3O)[C@@H](O)[C@H](O)[C@H]1O)c(CO)c2O
[3]
  mutagenic call: active; positive

## FC(F)Cl
Species/Cell Type: Tradescantia species, Assay Type: Gene mutation, Assay Code: TRM+D, Dose Response: With dose response, Evaluation Type: Evaluation A (Pre-1980)
  mutagenic call: active; positive

## CCCN(C)N=O
[5]
  mutagenic call: active; positive

## O=C1NC(c2ccc([N+](=O)[O-])s2)Nc2ccccc21 (centres undefined)
[9]
  mutagenic call: active; positive

## CC(C)(C)Cl
[4]
  mutagenic call: no conclusion

## NCCCCNCCCN
Species/Cell Type: Salmonella typhimurium (one or more of the five standard strains: TA98, TA100, TA1535, TA1537, and TA1538), Assay Type: Histidine reverse gene mutation, Ames assay, Assay Code: SALT, Evaluation Type: Evaluation A (Pre-1980)
  mutagenic call: no conclusion

## CCN(N=O)C(=O)Nc1ccccc1
[12]
  mutagenic call: active; positive

## Cc1ccc2c(ccc3c4ccccc4ccc23)c1
[3]
  mutagenic call: active; positive

## Cc1cc2nc3ccc(=[N+](C)C)cc-3sc2cc1N
Species/Cell Type: Bacillus subtilis (H17 vs M45T), Assay Type: Rec-assay, spot test, DNA effects (bacterial DNA repair), Assay Code: REXT, Evaluation Type: Evaluation A (Pre-1980)
  mutagenic call: no conclusion
Species/Cell Type: Saccharomyces cerevisiae, Assay Type: Mitotic recombination or gene conversion, Assay Code: YECT, Evaluation Type: Evaluation A (Pre-1980)
  mutagenic call: no conclusion

## O=c1ccc2ccc3occc3c2o1
Species/Cell Type: Mammalian cell culture, nonhuman, Assay Type: Micronucleus test in vitro, chromosome aberrations, Assay Code: MN&+, Evaluation Type: Evaluation A (Pre-1980)
  mutagenic call: active; positive
[13]
  mutagenic call: no conclusion

## CCCCN(CC(O)CC)N=O (centres undefined)
[3]
  mutagenic call: active; positive

## CCCCNCC
Species/Cell Type: Fischer rat embryo (RLV/1706) cells, Assay Type: Cell transformation, viral enhanced, Assay Code: CTR-, Evaluation Type: Evaluation A (Pre-1980)
  mutagenic call: inactive; negative

## CCCCCN(CCCC)N=O
[3]
  mutagenic call: active; positive

## CCOP(=O)(OCC)Oc1ccc([N+](=O)[O-])cc1
[12]
  mutagenic call: active; positive

## CCN(CC)CC(O)CNc1c2ccc(Cl)cc2nc2ccc(OC)cc12 (centres undefined)
Species/Cell Type: Mammalian polychromatic erythrocytes, Assay Type: Micronucleus test, chromosome aberrations, Assay Code: MNT+U, Dose Response: Unconfirmed positive response, Evaluation Type: Evaluation A (Pre-1980)
  mutagenic call: active; positive

## COC(=O)COc1ccc(Cl)cc1CSC(=N)N
[13]
  mutagenic call: no conclusion

## O=[N+]([O-])[O-].O=[N+]([O-])[O-].[Cd+2]
[6]
  mutagenic call: active; positive

## Cn1c(N)nc2c3cccnc3ccc21
Species/Cell Type: Chinese hamster ovary (CHO) cells, Assay Type: Forward gene mutation at the HPRT locus, Assay Code: CHOT, Evaluation Type: Evaluation B (Post-1980)
  mutagenic call: no conclusion
Species/Cell Type: Mammalian polychromatic erythrocytes, Assay Type: Micronucleus test, chromosome aberrations, Assay Code: MNT-, Evaluation Type: Evaluation B (Post-1980)
  mutagenic call: inactive; negative
Species/Cell Type: Nonhuman, Assay Type: Sister-chromatid exchange (SCE) in vitro, Assay Code: SC2+D*, Activation: With metabolic activation, Dose Response: With dose response, Evaluation Type: Evaluation B (Post-1980)
  mutagenic call: active; positive
Species/Cell Type: Nonhuman, Assay Type: Sister-chromatid exchange (SCE) in vivo, Assay Code: SC3+, Evaluation Type: Evaluation B (Post-1980)
  mutagenic call: active; positive

## CS(=O)(=O)OC/C=C/COS(C)(=O)=O
[14]
  mutagenic call: active; positive

## Oc1ccc(Cl)cc1Cc1cc(Cl)ccc1O
[10]
  mutagenic call: no conclusion

## OCn1cnc2ccccc21
Species/Cell Type: Arabidopsis species, Assay Type: Gene mutation, Assay Code: ARM-, Evaluation Type: Evaluation A (Pre-1980)
  mutagenic call: inactive; negative

## CCC(=O)O[C@H]1CC[C@H]2[C@@H]3CCC4=CC(=O)CC[C@]4(C)[C@H]3CC[C@]12C
Species/Cell Type: Human, Sex: Male, Assay Type: Sperm morphology, Assay Code: SPH+, Evaluation Type: Evaluation A (Pre-1980)
  mutagenic call: active; positive
Species/Cell Type: Nonhuman, Assay Code: CCG+, Evaluation Type: Evaluation A (Pre-1980)
  call: active; positive

## O=C1c2ccccc2C(=O)c2c(O)c(S(=O)(=O)O)cc(O)c21
[9]
  mutagenic call: active; positive

## Cc1ccc2cc3c(c4c2c1CC4)C1OC1c1ccccc1-3 (centres undefined)
[5]
  mutagenic call: active; positive
[14]
  mutagenic call: active; positive
[15]
  mutagenic call: active; positive
[11]
  call: no conclusion
Species/Cell Type: Syrian hamster embryo (SHE) cells, Assay Type: Cell transformation, clonal assay, Assay Code: CTC+, Evaluation Type: Evaluation A (Pre-1980)
  mutagenic call: active; positive

## O=C1c2ccccc2C(=O)C1c1ccc2cc(S(=O)(=O)O)cc(S(=O)(=O)O)c2n1
Species/Cell Type: Bacillus subtilis (H17 vs M45), Assay Type: Rec-assay, spot test, DNA effects (bacterial DNA repair), Assay Code: REWT, Evaluation Type: Evaluation A (Pre-1980)
  mutagenic call: no conclusion

## CS(=O)(=O)O
[8]
  mutagenic call: no conclusion
[4]
  mutagenic call: no conclusion

## Cc1c2c(cc3c1ccc1ccccc13)C=C[C@@H](O)[C@@H]2O
[5]
  mutagenic call: active; positive
[15]
  mutagenic call: active; positive
[11]
  call: no conclusion
Species/Cell Type: Nonhuman, Assay Type: Sister-chromatid exchange (SCE) in vitro, Assay Code: SC2+D, Dose Response: With dose response, Evaluation Type: Evaluation A (Pre-1980)
  mutagenic call: active; positive

## CC1CN(N=O)C(C)CN1N=O (centres undefined)
[3]
  mutagenic call: active; positive
